Experimental data as given in PMC9676650, “Binding pocket stabilization by high-throughput screening of yeast display libraries” (Frontiers in Molecular Biosciences, 2022).
Positions count from the first letter of the chain named. Several values for one entry are separate records, joined by “and”; a condition that tells them apart may be missing. Equal entries are not always repeated.

Tests used:
FKBP51 WT (FK1 domain) = target: T1, FKBP51 WT (FK1 domain) (Homo sapiens, UniProt Q13451); experiment: Fluorescence polarization tracer binding, FKBP51 WT; conditions: for Fold change in Kd improvement: FKBP51 WT (reference); for Kd: FKBP51 WT, 0.5 nM SAFit-FL, 5 nM Mcyc-TA or 1 nM FK [431]-TA, 30 min room temperature, 3 independent experiments
T1 construct: made in house; host or cells: E. coli BL21 (DE3)
T1 sequence (Q13451 1-140): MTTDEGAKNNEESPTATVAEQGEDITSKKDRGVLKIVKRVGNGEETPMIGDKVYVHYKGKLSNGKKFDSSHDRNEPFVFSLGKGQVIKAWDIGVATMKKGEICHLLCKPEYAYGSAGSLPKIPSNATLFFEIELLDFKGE
Source text: (§1) All ligands and tracers used for fluorescence polarization assays had purities of more than 95%. The following ligands and tracers were used for fluorescence polarization and FACS screening experiments: •SAFit-FL tracer (1): Fluorescein conjugated analog of the iFit ligand class. •Mcyc-TA tracer (2): TAMRA conjugated macrocyclic ligand (5). •FK [431]-TA tracer (3): TAMRA conjugated FK [431] ligand (6). •SAFit1 ligand (4): analog of the iFit ligand class. •macrocyclic ligand (5):macrocyclic analog of the SAFit class ligands. •FK [431] ligand (6):bicyclic analog of the immunosuppressive drug FK506
(§2) The binding of the generated FKBP51 variants to different conformation-sensitive FKBP ligands was investigated by fluorescence polarization assays. Therefore, a serial dilution of the respective FKBP51 variant in assay buffer (20 mM HEPES pH 8.0, 150 mM NaCl, 0.015% Triton X-100) was placed in a 384-well assay plate and a defined amount of the respective fluorescent tracer (0.5 nM of the SAFit based tracer SAFit-FL (1), 5 nM of the macrocyclic tracer Mcyc-TA 2) or 1 nM of the FK [431]-TA 3) in assay buffer was added to the protein buffer mixture. After incubation for 30 min at room temperature, the fluorescence polarization was measured with a plate reader. The obtained results for each 3 independent experiments were normalized with respect to the maximal binding signal and fitted to a one-site binding model as described by [Wang et al., 1992] yielding the respective binding constants. tracer bound=100/Lt×0.5×(Rt+Lt+KD−(Rt+Lt+KD)^2−4×LtRt) With L t , total concentration of the tracer, R t , total concentration of the receptor and K D binding constant of the complex RL.

FKBP51 variant G64S = target: T2, FKBP51 variant G64S (Homo sapiens, UniProt Q13451, G64S); experiment: Fluorescence polarization tracer binding, FKBP51 G64S; conditions: for Kd: FKBP51 G64S, 0.5 nM SAFit-FL, 5 nM Mcyc-TA or 1 nM FK [431]-TA, 30 min room temperature
T2 construct: made in house; host or cells: E. coli BL21 (DE3)
T2 sequence (Q13451 1-140 G64S): T1 sequence (Q13451 1-140) with G64S
Source text: as §1, §2

FKBP51 variant G64K = target: T3, FKBP51 variant G64K (Homo sapiens, UniProt Q13451, G64K); experiment: Fluorescence polarization tracer binding, FKBP51 G64K; conditions: for Fold change in Kd improvement: FKBP51 G64K compared to WT; for Kd: FKBP51 G64K, 0.5 nM SAFit-FL, 5 nM Mcyc-TA or 1 nM FK [431]-TA, 30 min room temperature
T3 construct: made in house; host or cells: E. coli BL21 (DE3)
T3 sequence (Q13451 1-140 G64K): T1 sequence (Q13451 1-140) with G64K
Source text: as §1, §2

FKBP51 variant F67E = target: T4, FKBP51 variant F67E (Homo sapiens, UniProt Q13451, F67E); experiment: Fluorescence polarization tracer binding, FKBP51 F67E; conditions: for Kd: FKBP51 F67E, 0.5 nM SAFit-FL, 5 nM Mcyc-TA or 1 nM FK [431]-TA, 30 min room temperature
T4 construct: made in house; host or cells: E. coli BL21 (DE3)
T4 sequence (Q13451 1-140 F67E): T1 sequence (Q13451 1-140) with F67E
Source text: as §1, §2

FKBP51 variant F67R = target: T5, FKBP51 variant F67R (Homo sapiens, UniProt Q13451, F67R); experiment: Fluorescence polarization tracer binding, FKBP51 F67R; conditions: for Fold change in Kd improvement: FKBP51 F67R compared to WT; for Kd: FKBP51 F67R, 0.5 nM SAFit-FL, 5 nM Mcyc-TA or 1 nM FK [431]-TA, 30 min room temperature
T5 construct: made in house; host or cells: E. coli BL21 (DE3)
T5 sequence (Q13451 1-140 F67R): T1 sequence (Q13451 1-140) with F67R
Source text: as §1, §2

FKBP51 variant F67S = target: T6, FKBP51 variant F67S (Homo sapiens, UniProt Q13451, F67S); experiment: Fluorescence polarization tracer binding, FKBP51 F67S; conditions: for Fold change in Kd improvement: FKBP51 F67S compared to WT; for Kd: FKBP51 F67S, 0.5 nM SAFit-FL, 5 nM Mcyc-TA or 1 nM FK [431]-TA, 30 min room temperature
T6 construct: made in house; host or cells: E. coli BL21 (DE3)
T6 sequence (Q13451 1-140 F67S): T1 sequence (Q13451 1-140) with F67S
Source text: as §1, §2

FKBP51 variant F67W = target: T7, FKBP51 variant F67W (Homo sapiens, UniProt Q13451, F67W); experiment: Fluorescence polarization tracer binding, FKBP51 F67W; conditions: for Fold change in Kd improvement: FKBP51 F67W compared to WT
T7 construct: made in house; host or cells: E. coli BL21 (DE3)
T7 sequence (Q13451 1-140 F67W): T1 sequence (Q13451 1-140) with F67W
Source text: as §1, §2

FKBP51 variant D68N = target: T8, FKBP51 variant D68N (Homo sapiens, UniProt Q13451, D68N); experiment: Fluorescence polarization tracer binding, FKBP51 D68N; conditions: for Fold change in Kd improvement: FKBP51 D68N compared to WT; for Kd: FKBP51 D68N, 0.5 nM SAFit-FL, 5 nM Mcyc-TA or 1 nM FK [431]-TA, 30 min room temperature
T8 construct: made in house; host or cells: E. coli BL21 (DE3)
T8 sequence (Q13451 1-140 D68N): T1 sequence (Q13451 1-140) with D68N
Source text: as §1, §2

CN(C)c1ccc2c(-c3cc(C(=O)NCCn4cc([C@H]5CN(Cc6ccccn6)C(=O)[C@@H]6CCC[C@H]5N6S(=O)(=O)c5cc(Cl)cc(Cl)c5)nn4)ccc3C(=O)O)c3ccc(=[N+](C)C)cc-3oc2c1 [FK [431]-TA]
Fold change in Kd improvement (FKBP51 WT (FK1 domain)): 1 fold
Kd (FKBP51 WT (FK1 domain)): 5.1 ± 0.1 nM
Kd (FKBP51 variant G64S): 11 ± 1 nM
Fold change in Kd improvement (FKBP51 variant G64K): 0.283 fold
Kd (FKBP51 variant G64K): 18 ± 1 nM
Fold change in Kd improvement (FKBP51 variant F67E; FKBP51 F67E compared to WT): 0.004 fold
Kd (FKBP51 variant F67E): 1330 ± 66 nM
Fold change in Kd improvement (FKBP51 variant F67R): 0.016 fold
Kd (FKBP51 variant F67R): 312 ± 14 nM
Fold change in Kd improvement (FKBP51 variant F67S): 0.004 fold
Kd (FKBP51 variant F67S): 1240 ± 60 nM
Fold change in Kd improvement (FKBP51 variant F67W): 0.004 fold
Fold change in Kd improvement (FKBP51 variant D68N): 0.035 fold
Kd (FKBP51 variant D68N): 146 ± 6 nM

COc1ccc(CC[C@H]2OC(=O)[C@@H]3CCCCN3C(=O)[C@@H](C3CCCCC3)NC(=O)C(C)(C)NC(=O)COc3cc(OCCNC(=O)c4ccc(C(=O)O)c(-c5c6ccc(=[N+](C)C)cc-6oc6cc(N(C)C)ccc56)c4)cc2c3)cc1OC [Mcyc-TA]
Fold change in Kd improvement (FKBP51 WT (FK1 domain)): 1.00 fold
Kd (FKBP51 WT (FK1 domain)): 24 ± 2 nM
Fold change in Kd improvement (FKBP51 variant G64S; FKBP51 G64S compared to WT): 34 fold and 34.29 fold
Kd (FKBP51 variant G64S): 0.7 ± 0.2 nM
Fold change in Kd improvement (FKBP51 variant G64K): 6.86 fold
Kd (FKBP51 variant G64K): 3.5 ± 0.5 nM
Kd (FKBP51 variant F67E): 5 ± 0.5 nM
Fold change in Kd improvement (FKBP51 variant F67R): 1.00 fold
Kd (FKBP51 variant F67R): 24 ± 3 nM
Fold change in Kd improvement (FKBP51 variant F67S): 1.14 fold
Kd (FKBP51 variant F67S): 21 ± 2 nM
Fold change in Kd improvement (FKBP51 variant F67W): 1.50 fold
Kd (FKBP51 variant F67W; FKBP51 F67W, 0.5 nM SAFit-FL, 5 nM Mcyc-TA or 1 nM FK [431]-TA, 30 min room temperature): 16 ± 1 nM
Fold change in Kd improvement (FKBP51 variant D68N): 4.00 fold
Kd (FKBP51 variant D68N): 6 ± 1 nM
